US20240228950A1, “MICROPATTERNED 3D HYDROGEL MICROARRAY IN FLUIDIC CHANNELS FOR SPHEROID-IN-GEL CULTURE” (NANYANG TECHNOLOGICAL UNIVERSITY, priority 2021, published 2024)

Experiments:
Type in all cases: cell-based, human
[1] = test system: HUVEC endothelial barrier; assay: Endothelial barrier integrity study (FITC-dextran 70 kDa diffusion into hydrogel island); conditions: HUVEC treated with 100 and 500 nM for 3 days; 60 min dextran incubation
Method: To assess the endothelial barrier integrity after drug treatment in the spheroid-in-gel chip, Collagen I (3 mg/mL) and HUVEC were seeded into the chip as described in example 2C. Sub-confluent HUVEC were treated with Paclitaxel (100 and 500 nM) and cultured for 3 days prior to the barrier permeability test. Fluorescence images were taken before and after 1 hr incubation with 10 μg/mL 70 kDa dextran conjugated with fluorescein isothiocyanate (FITC, Sigma Aldrich, St. Louis, MO, USA) loaded in the fluidic channels. Fluorescence intensities within the hydrogel island were expressed as the fold change (time 60 min over 0 min) and normalized to the untreated control.

[2] = test system: HUVEC; assay: Live/dead assay (Calcein-AM/PI) of endothelial cells co-cultured with spheroids after drug treatment; conditions: spheroid co-cultured with HUVEC, 3 days treatment
Method: The chip was incubated at 37° C. for 30 min to allow for gelation of collagen and Matrigel, following which DMEM with 10% FBS was added into the fluidic channel. For co-culture with HUVEC, the channel was coated with polydopamine (1 mg/mL) for 30 min at 37° ° C. to facilitate HUVEC adhesion and growth. The polydopamine solution was prepared by dissolving dopamine hydrochloride (Sigma Aldrich, St. Louis, MO, USA) in Tris-HCl buffer, pH 8.5. The channel was washed with 1× Phosphate Buffer Saline (PBS) three times, following which a suspension of HUVEC (1.5 million/mL) was loaded into the channel and allowed to grow for 2 days to reach confluency. The HUVEC were cultivated under static conditions.
Following that, the cells were stained with VE-Cadherin rabbit anti-human CD144 primary antibody (10 μg/mL, Enzo, Farmingdale, NY, USA) overnight at 4° C. On the next day, the cells were rinsed with 0.1% BSA in PBS three times, and fluorescently labeled with AlexaFluor 488 goat anti-rabbit secondary antibody (20 μg/mL, Life Technologies, Carlsbad, CA, USA) for 4 hr at room temperature. […]
The cells/spheroids were then imaged using a fluorescence microscope (Nikon Eclipse Ti, Melville, NY, USA). […] Fluorescence intensity of Calcein-AM and PI was analyzed using ImageJ and calculated according to equation (1) below.

[3] = test system: MCF-7 spheroids; assay: Live/dead assay (Calcein-AM/PI) of spheroids-in-gel after drug treatment; conditions: 3 days treatment
Method: For spheroid-in-gel culture on the microarray chip, the PDMS surface was made hydrophilic by a 1-min plasma treatment using a plasma cleaner (PDC-002, Harrick Plasma Inc, Ithaca, NY, USA) to ensure even spreading of hydrogel onto the surface of the island. MCF-7 cells were dissociated and resuspended to a concentration of 1.7 million per mL. Collagen I was added to the suspension at 20 g/mL to enhance spheroid formation. MCF-7 suspension was loaded onto each island (3 L per island), following which the PDMS chip was inverted on top of a water reservoir for a hanging drop culture. […] The chip was maintained 37 °C for 2 days to allow for spheroid formation. […] Upon spheroid formation, the chip was subjected to media evaporation in the 37° C. incubator, following which collagen I (3 mg/mL) or Matrigel (4 mg/mL, Corning. NY, USA) was loaded onto each island (2 L per island) for in-place encapsulation of the spheroid. The chip was incubated at 37° C. for 30 min to allow for gelation of collagen and Matrigel, following which DMEM with 10% FBS was added into the fluidic channel. For co-culture with HUVEC, the channel was coated with polydopamine (1 mg/mL) for 30 min at 37° ° C. to facilitate HUVEC adhesion and growth. The polydopamine solution was prepared by dissolving dopamine hydrochloride (Sigma Aldrich, St. Louis, MO, USA) in Tris-HCl buffer, pH 8.5. The channel was washed with 1× Phosphate Buffer Saline (PBS) three times, following which a suspension of HUVEC (1.5 million/mL) was loaded into the channel and allowed to grow for 2 days to reach confluency. The HUVEC were cultivated under static conditions. […] The cells/spheroids were then imaged using a fluorescence microscope (Nikon Eclipse Ti, Melville, NY, USA). […] Fluorescence intensity of Calcein-AM and PI was analyzed using ImageJ and calculated according to equation (1) below. […] Spheroid area is determined by Hoechst staining. […] The same set of imaging parameters including exposure time and focal plane was used when acquiring the images to minimize inaccuracies in the fluorescence intensity.

SMILES: CC(=O)O[C@H]1C(=O)[C@@]2(C)[C@H]([C@H](OC(=O)c3ccccc3)[C@]3(O)C[C@H](OC(=O)[C@H](O)[C@@H](NC(=O)c4ccccc4)c4ccccc4)C(C)=C1C3(C)C)[C@]1(OC(C)=O)CO[C@@H]1C[C@@H]2O [Paclitaxel]
- Endothelial barrier integrity based on diffusion of FITC-Dextran 70 kDa into the hydrogel islands [1]: impaired the endothelial barrier integrity
- EC death by live/dead staining (Calcein-AM/PI) [2]: higher EC death
- MCF-7 death by live/dead staining (Calcein-AM/PI) ([3]; mono-cultured spheroids, PTX 1, 100, 500 nM): higher MCF-7 death with increasing drug concentration
- PI intensity of drug-treated spheroids, mono-culture versus co-culture ([3]; with or without HUVEC co-culture, PTX 1, 100, 500 nM): negligible differences in PI intensity
- Spheroid Calcein-AM intensity (survival), co-culture versus mono-culture ([3]; with or without HUVEC co-culture, normalized to untreated group): trend of better survival of spheroids in co-cultures as compared to mono-culture, although no significant difference was observed
